Results on 25 compounds are retold here after patent US20250099448A1, “HETEROCYCLIC COMPOUNDS” (Hoffmann-La Roche Inc., priority 2022, published 2025).

The target of the experiment is T1, MAGL protein (Homo sapiens, UniProt Q99685).
T1 sequence (Q99685 1-303): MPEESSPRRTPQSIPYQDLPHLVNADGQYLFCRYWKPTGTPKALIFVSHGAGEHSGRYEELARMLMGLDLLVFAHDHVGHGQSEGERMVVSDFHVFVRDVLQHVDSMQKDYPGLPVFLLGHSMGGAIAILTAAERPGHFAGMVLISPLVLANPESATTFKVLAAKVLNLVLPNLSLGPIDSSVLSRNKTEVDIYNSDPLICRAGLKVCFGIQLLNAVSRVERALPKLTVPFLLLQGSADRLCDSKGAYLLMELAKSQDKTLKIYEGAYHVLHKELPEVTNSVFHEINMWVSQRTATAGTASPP
Nature of the experiment: 2-AG assay: MAGL inhibitory activity by hydrolysis of 2-arachidonoylglycerol to arachidonic acid, followed by mass spectrometry. In kind it is biochemical. Conditions: 8 μM 2-arachidonoylglycerol, 15 min preincubation, 30 min reaction at RT, RapidFire MS readout. The procedure, abridged:
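Activity was measured by RapidFire SPE–triple-quad MS as the ratio of arachidonic acid to d8-arachidonic acid after 2-AG hydrolysis (8 μM substrate, 30 min, RT, acetonitrile quench). Compounds, tested from 12.5 μM down to […], were first preincubated 15 min with MAGL in TRIS/EDTA/Tween-20 buffer containing 2.5% DMSO.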

Each structure is given as a SMILES string.

As to `O=C(N1CC(Oc2ccc(C(F)(F)F)cc2)C1)N1CC2(CC(c3nnc(C4(O)CC4)[nH]3)C2)C1` [compound 323], the IC50 (as a rule, the point on the concentration scale where inhibition reaches its midpoint) was determined as 12.3 nM. That is a double-digit nanomolar value.

For the compound `O=C(N1CC(OCc2ccc(C(F)(F)F)cc2F)C1)N1CC2(CC(c3nnc(C4(O)CC4)[nH]3)C2)C1` [compound 324], 14.3 nM corresponded to half-maximal inhibition (IC50).

`O=C(N1CC(Oc2ccc(Cl)c(C3CC3)c2)C1)N1CC2(CC(c3nnc(C4(O)CC4)[nH]3)C2)C1` [compound 325] showed a half-inhibitory concentration (IC50) of 14.7 nM.

For the compound `O=C(N1CC(OCC2CCC(F)(F)CC2)C1)N1CC2(CC(c3nnc(C4CC4)[nH]3)C2)C1` [compound 326], the IC50 worked out at 22.8 nM.

`O=C(N1CC(OCC2CC3C(C2)C3(F)F)C1)N1CC2(CC(c3nnc(C4CC4)[nH]3)C2)C1` (stereo not shown) [compound 327] displayed an IC50 of 24.9 nM.

Regarding `O=C(N1CC(Oc2cnc(Cl)c(C3CC3)c2)C1)N1CC2(CC(c3nnc(C4CC4)[nH]3)C2)C1` [compound 328], the IC50 amounted to 35.4 nM.

`O=C(N1CC(OCc2cncc(C(F)(F)F)c2)C1)N1CC2(CC(c3nnc(C4CC4)[nH]3)C2)C1` [compound 329] came in with an IC50 of 38.1 nM.

As for `CS(=O)(=O)c1ccc(COC2CN(C(=O)N3CC4(CC(c5nnc(C6CC6)[nH]5)C4)C3)C2)c(F)c1` [compound 330], the IC50 stood at 59.9 nM.

In the case of `O=C(N1CC(OCC2(C(F)(F)F)CC2)C1)N1CC2(CC(c3nnc(C4CC4)[nH]3)C2)C1` [compound 331], the IC50 is 109 nM. This IC50 lies about 1.8-fold higher than the previous one.

Compound `O=C(N1CC(OCc2ccc(C(F)(F)F)nc2)C1)N1CC2(CC(c3nnc(C4CC4)[nH]3)C2)C1` [compound 332] gave an IC50 of 159 nM.

Turning to `CS(=O)(=O)c1ccc(COC2CN(C(=O)N3CC4(CC(c5nnc(C6CC6)[nH]5)C4)C3)C2)cc1` [compound 333], the IC50 is 159 nM.

`CS(=O)(=O)c1cccc(COC2CN(C(=O)N3CC4(CC(c5nnc(C6CC6)[nH]5)C4)C3)C2)c1` [compound 334] gave an IC50 of 272 nM.

In the case of `CS(=O)(=O)c1ccccc1COC1CN(C(=O)N2CC3(CC(c4nnc(C5CC5)[nH]4)C3)C2)C1` [compound 335], half-maximal inhibition (IC50) required 467 nM.

The compound `O=C(N1CC(OCc2ccc(C(F)(F)F)cc2F)C1)N1CC2(CC(c3nnc(C(O)C(F)(F)F)[nH]3)C2)C1` (stereo not shown) [compound 336] gave an IC50 of 55.8 nM.

The compound `CS(=O)(=O)c1cc(Cl)ccc1-c1ccc(C2CN(C(=O)N3CC4(CC(c5nnc(C6CC6)[nH]5)C4)C3)C2)cc1` [compound 337] registered an IC50 of 0.07 nM.

For the compound `CS(=O)(=O)c1ccc(-c2ccc(C3CN(C(=O)N4CC5(CC(c6nnc(C7CC7)[nH]6)C5)C4)C3)cc2)c(Cl)c1` [compound 338], the IC50 was determined as 0.09 nM.

The compound `COC(=O)c1ccccc1-c1ccc(C2CN(C(=O)N3CC4(CC(c5nnc(C6CC6)[nH]5)C4)C3)C2)cc1` [compound 339] showed a half-maximal inhibitory concentration (IC50) of 0.16 nM.

Consider `NC(=O)c1ccccc1-c1ccc(C2CN(C(=O)N3CC4(CC(c5nnc(C6CC6)[nH]5)C4)C3)C2)cc1` [compound 340], for which the midpoint of inhibition, the IC50, lay at 1.09 nM.

With `O=C(N1CC(C23CC(CNC4(C(F)(F)F)CC4)(C2)C3)C1)N1CC2(CC(c3nnc(C4CC4)[nH]3)C2)C1` [compound 341], the IC50 was 0.12 nM.

`O=C(N1CC(C23CC(NCC4(C(F)(F)F)CC4)(C2)C3)C1)N1CC2(CC(c3nnc(C4CC4)[nH]3)C2)C1` [compound 342] displayed an IC50 of 0.49 nM.

`CC(C)(C)Cc1nnc(C23CC(C4CN(C(=O)N5CC6(CC(c7nnc(C8CC8)[nH]7)C6)C5)C4)(C2)C3)o1` [compound 343] displayed an IC50 of 0.97 nM.

`O=C(N1CC(C23CC(c4nnc(CC(F)(F)F)o4)(C2)C3)C1)N1CC2(CC(c3nnc(C4CC4)[nH]3)C2)C1` [compound 344] gave an IC50 of 7.59 nM. Against the preceding compound, the IC50 is about 7.8-fold higher.

In turn, `O=C(N1CC(C23CC(c4nnc(C5CC5)o4)(C2)C3)C1)N1CC2(CC(c3nnc(C4CC4)[nH]3)C2)C1` [compound 345] yielded an IC50 of 9.15 nM.

Regarding `O=C(N1CC2(CCC(Oc3cc(Cl)ccc3Cl)CC2)C1)N1CC2(CC(c3nnc(C4(O)CC4)[nH]3)C2)C1` [compound 346], the IC50 was 0.13 nM.

Consider `O=C(N1CC(COc2ccc(C(F)(F)F)cc2F)C1)N1CC2(CC(c3nnc(C4CC4)[nH]3)C2)C1` [compound 347], for which the IC50 is 0.31 nM.
